The record followed here is US9994551B2, “Pyridazine derivatives as RORc modulators” (Genentech, Inc., priority 2015, dated 2018).

pIC50: −log10 of the molar value.

The target of the experiment is T1, RORc ligand binding domain (Homo sapiens, UniProt P51449).
T1 construct: host or cells: E. coli
T1 sequence (P51449 269-508 limits assumed): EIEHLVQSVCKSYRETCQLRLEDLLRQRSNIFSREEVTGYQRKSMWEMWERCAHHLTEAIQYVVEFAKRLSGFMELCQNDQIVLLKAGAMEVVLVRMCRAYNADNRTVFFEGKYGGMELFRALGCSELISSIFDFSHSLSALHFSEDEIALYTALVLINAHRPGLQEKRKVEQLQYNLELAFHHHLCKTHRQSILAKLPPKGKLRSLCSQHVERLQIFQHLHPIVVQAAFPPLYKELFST
The experiment in a line: In vitro RORc ligand binding assay (25-[3H]hydroxycholesterol displacement, filter binding).
`CC(C)(C)OC(=O)N1CCN[C@H]([C@@]23CC[C@@H](c4cc(-c5c(F)cccc5F)nnc42)C3(C)C)C1` (single isomer, unassigned) [Compound 114, tert-butyl 3-[5-(2,6-difluorophenyl)-11,11-dimethyl-3,4-diazatricyclo[6.2.1.02,7]undeca-2,4,6-trien-1-yl]piperazine-1-carboxylate] gave a pIC50 of 6.38.

`Cc1coc(N2CCO[C@H]([C@@]34CC[C@@H](c5cc(-c6c(F)cccc6F)nnc53)C4(C)C)C2)n1` [Compound 134, 2-[5-(2,6-difluorophenyl)-11,11-dimethyl-3,4-diazatricyclo[6.2.1.02,7]undeca-2,4,6-trien-1-yl]-4-(4-methyloxazol-2-yl)morpholine] showed a negative-log IC50 (pIC50) of 8.40.

The molecule `CC1(C)[C@H]2CC[C@]1(c1cccc3nccn13)c1nnc(-c3c(F)cccc3F)cc12` [Compound 107, (5R,8S)-3-(2,6-difluorophenyl)-8-(imidazo[1,2-a]pyridin-5-yl)-9,9-dimethyl-5,6,7,8-tetrahydro-5,8-methanocinnoline] showed a negative logarithm of the IC50 (pIC50) of 7.04.

`CC1(C)[C@H]2CC[C@]1(c1ccn3ccnc3n1)c1nnc(-c3c(F)cccc3F)cc12` [Compound 106] gave a negative logarithm of the IC50 (pIC50) of 6.99.

The molecule `CC[C@@H](O[C@@]12CC[C@@H](c3cc(-c4c(F)cccc4F)nnc31)C2(C)C)c1nc[nH]n1` [Compound 40, (5S,8R)-8-((R)-1-(1H-1,2,4-triazol-3-yl)propoxy)-3-(2,6-difluorophenyl)-9,9-dimethyl-5,6,7,8-tetrahydro-5,8-methanocinnoline] had a pIC50 of 7.30.

For the molecule `CC1(C)[C@H]2CC[C@]1([C@H]1CCCN(C(=O)c3cnccn3)C1)c1nnc(-c3c(F)cccc3F)cc12` [Compound 132, [3-[5-(2,6-difluorophenyl)-11,11-dimethyl-3,4-diazatricyclo[6.2.1.02,7]undeca-2,4,6-trien-1-yl]-1-piperidyl]-pyrazin-2-yl-methanone], the negative logarithm of the IC50 (pIC50) was 7.85.

`CC1(C)[C@H]2CC[C@]1([C@H]1CCCN(C(=O)c3ccno3)C1)c1nnc(-c3c(F)cccc3F)cc12` (stereo in doubt) [Compound 166, [3-[5-(2,6-difluorophenyl)-11,11-dimethyl-3,4-diazatricyclo[6.2.1.02,7]undeca-2,4,6-trien-1-yl]-1-piperidyl]-isoxazol-5-yl-methanone]: the pIC50 was 7.48.

For `CC(C)(C)OC(=O)N1CCN[C@H]([C@@]23CC[C@@H](c4cc(-c5c(F)cccc5F)nnc42)C3(C)C)C1` [Compound 62, (R)-tert-butyl 3-((5R,8S)-3-(2,6-difluorophenyl)-9,9-dimethyl-5,6,7,8-tetrahydro-5,8-methanocinnolin-8-yl)piperazine-1-carboxylate], the negative logarithm of the IC50 (pIC50) was 6.87.

Regarding `CCO[C@@]12CC[C@@H](c3cc(-c4c(F)cccc4F)nnc31)C2(C)C` [Compound 7, (5S,8R)-3-(2,6-difluorophenyl)-8-ethoxy-9,9-dimethyl-5,6,7,8-tetrahydro-5,8-methanocinnoline], the negative-log IC50 (pIC50) is 8.03.

In the case of `CC1(C)[C@H]2CC[C@]1([C@H]1CCCN(c3cnccn3)C1)c1nnc(-c3c(F)cccc3F)cc12` [Compound 165, 5-(2,6-difluorophenyl)-11,11-dimethyl-1-(1-pyrazin-2-yl-3-piperidyl)-3,4-diazatricyclo[6.2.1.02,7]undeca-2,4,6-triene], the pIC50 is 7.62.

Turning to `CC[C@@H](O[C@@]12CC[C@@H](c3cc(-c4c(F)cccc4F)nnc31)C2(C)C)C(=O)NCC(=O)N(C)C` [Compound 104, (R)-2-(((5S,8R)-3-(2,6-difluorophenyl)-9,9-dimethyl-5,6,7,8-tetrahydro-5,8-methanocinnolin-8-yl)oxy)-N-(2-(dimethylamino)-2-oxoethyl)butanamide], the pIC50 is 7.08.

`CC[C@@H](O[C@@]12CC[C@@H](c3cc(-c4c(F)cccc4F)nnc31)C2(C)C)c1n[nH]c(CO)n1` [Compound 39, (3-((R)-1-(((5S,8R)-3-(2,6-difluorophenyl)-9,9-dimethyl-5,6,7,8-tetrahydro-5,8-methanocinnolin-8-yl)oxy)propyl)-1H-1,2,4-triazol-5-yl)methanol] had a negative logarithm of the IC50 (pIC50) of 6.08.

On to `CC1(C)[C@H]2CC[C@]1([C@@H]1CN(Cc3ccccc3)CCO1)c1nnc(-c3c(F)cccc3F)cc12` [Compound 60, (R)-4-benzyl-2-((5R,8R)-3-(2,6-difluorophenyl)-9,9-dimethyl-5,6,7,8-tetrahydro-5,8-methanocinnolin-8-yl)morpholine], for which the pIC50 is 6.50.

As to `CNS(=O)(=O)N1CCC[C@H]([C@@]23CC[C@@H](c4cc(-c5c(F)cccc5F)nnc42)C3(C)C)C1` [Compound 138, 3-[5-(2,6-difluorophenyl)-11,11-dimethyl-3,4-diazatricyclo[6.2.1.02,7]undeca-2,4,6-trien-1-yl]-N-methyl-piperidine-1-sulfonamide], the negative-log IC50 (pIC50) is 7.92.

`CC1(C)[C@H]2CC[C@]1([C@H]1CN(C(=O)c3ccc(=O)[nH]n3)CCO1)c1nnc(-c3c(F)cccc3F)cc12` (stereo in doubt) [Compound 123, 3-[2-[5-(2,6-difluorophenyl)-11,11-dimethyl-3,4-diazatricyclo[6.2.1.02,7]undeca-2,4,6-trien-1-yl]morpholine-4-carbonyl]-1H-pyridazin-6-one] had a pIC50 of 6.14.

Consider `CC[C@@H](O[C@@]12CC[C@@H](c3cc(-c4c(F)cccc4F)nnc31)C2(C)C)C(=O)OC` [Compound 112, methyl (2R)-2-[[(1R,8S)-5-(2,6-difluorophenyl)-11,11-dimethyl-3,4-diazatricyclo[6.2.1.02,7]undeca-2,4,6-trien-1-yl]oxy]butanoate], for which the pIC50 is 7.92.

Molecule `CC1(C)[C@H]2CC[C@]1(O[C@@H](C(N)=O)C1CC1)c1nnc(-c3c(F)cccc3F)cc12` [Compound 44] showed a pIC50 of 7.84.

On to `CC1(C)[C@H]2CC[C@]1([C@@H]1CN(c3nc(CO)co3)CCO1)c1nnc(-c3c(F)cccc3F)cc12` [Compound 130, [2-[2-[5-(2,6-difluorophenyl)-11,11-dimethyl-3,4-diazatricyclo[6.2.1.02,7]undeca-2,4,6-trien-1-yl]morpholin-4-yl]oxazol-4-yl]methanol], for which the pIC50 is 8.06.

In turn, `CC(CO)NC(=O)N1CCO[C@H]([C@@]23CC[C@@H](c4cc(-c5c(F)cccc5F)nnc42)C3(C)C)C1` (stereo in doubt) [Compound 141, 2-[5-(2,6-difluorophenyl)-11,11-dimethyl-3,4-diazatricyclo[6.2.1.02,7]undeca-2,4,6-trien-1-yl]-N-(2-hydroxy-1-methyl-ethyl)morpholine-4-carboxamide] gave a negative logarithm of the IC50 (pIC50) of 8.02.

The molecule `CC1(C)[C@H]2CC[C@]1([C@@H]1CN(C(=O)C(O)CO)CCO1)c1nnc(-c3c(F)cccc3F)cc12` (stereo partly drawn) [Compound 78, 1-((R)-2-((5R,8R)-3-(2,6-difluorophenyl)-9,9-dimethyl-5,6,7,8-tetrahydro-5,8-methanocinnolin-8-yl)morpholino)-2,3-dihydroxypropan-1-one] had a negative-log IC50 (pIC50) of 6.67.

In turn, `CC1(C)[C@H]2CC[C@]1([C@H]1CCCN(c3ccc(Cl)nn3)C1)c1nnc(-c3c(F)cccc3F)cc12` [Compound 170, 1-[1-(6-chloropyridazin-3-yl)-3-piperidyl]-5-(2,6-difluorophenyl)-11,11-dimethyl-3,4-diazatricyclo[6.2.1.02,7]undeca-2,4,6-triene] gave a pIC50 of 7.74.

`CC[C@@H](O[C@@]12CC[C@@H](c3cc(-c4c(F)cccc4F)nnc31)C2(C)C)C(=O)O` [Compound 111, (2R)-2-[[(1R,8S)-5-(2,6-difluorophenyl)-11,11-dimethyl-3,4-diazatricyclo[6.2.1.02,7]undeca-2,4,6-trien-1-yl]oxy]butanoic acid]: the pIC50 was 7.85.

The molecule `CC1(C)[C@H]2CC[C@]1(Oc1cncnc1)c1nnc(-c3c(F)cccc3F)cc12` [Compound 28, (5S,8R)-3-(2,6-difluorophenyl)-9,9-dimethyl-8-(pyrimidin-5-yloxy)-5,6,7,8-tetrahydro-5,8-methanocinnoline] gave a pIC50 of 6.73.

`CC(=O)N1CCO[C@@H]([C@@]23CC[C@@H](c4cc(-c5c(F)cccc5F)nnc42)C3(C)C)C1` [Compound 72, 1-((S)-2-((5R,8R)-3-(2,6-difluorophenyl)-9,9-dimethyl-5,6,7,8-tetrahydro-5,8-methanocinnolin-8-yl)morpholino)ethanone] showed a pIC50 of 6.92.

For the molecule `CCNC(=O)N1CCC[C@H]([C@@]23CC[C@@H](c4cc(-c5c(F)cccc5F)nnc42)C3(C)C)C1` [Compound 136, 3-[5-(2,6-difluorophenyl)-11,11-dimethyl-3,4-diazatricyclo[6.2.1.02,7]undeca-2,4,6-trien-1-yl]-N-ethyl-piperidine-1-carboxamide], the negative-log IC50 (pIC50) was 7.54.

In turn, `CCNC(=O)[C@H](CC)O[C@@]12CC[C@@H](c3cc(-c4c(F)cccc4F)nnc31)C2(C)C` [Compound 19, (S)-2-(((5S,8R)-3-(2,6-difluorophenyl)-9,9-dimethyl-5,6,7,8-tetrahydro-5,8-methanocinnolin-8-yl)oxy)-N-ethylbutanamide] had a negative logarithm of the IC50 (pIC50) of 7.46.

`CC1(C)[C@H]2CC[C@]1([C@H]1CCCN(c3ccncn3)C1)c1nnc(-c3c(F)cccc3F)cc12` [Compound 164, 5-(2,6-difluorophenyl)-11,11-dimethyl-1-(1-pyrimidin-4-yl-3-piperidyl)-3,4-diazatricyclo[6.2.1.02,7]undeca-2,4,6-triene] showed a negative logarithm of the IC50 (pIC50) of 7.70.

Consider `CC1(C)[C@H]2CC[C@]1([C@H]1CN(c3ccccn3)CCO1)c1nnc(-c3c(F)cccc3F)cc12` [Compound 82, (S)-2-((5R,8R)-3-(2,6-difluorophenyl)-9,9-dimethyl-5,6,7,8-tetrahydro-5,8-methanocinnolin-8-yl)-4-(pyridin-2-yl)morpholine], for which the negative logarithm of the IC50 (pIC50) is 7.78.

Broadly, the pIC50 is the IC50 on a negative log10 scale, so that one unit is a factor of ten. A high value points to a low IC50.
